Series [1] is filed under the species Mus musculus. As to the kind of experiment: Disruption of PICK1-GluA2 interaction in lumbar spinal cord lysates of male C57BL/6 mouse at 20 uM, IT and measured by co-immunoprecipitation assay. The format is subcellular.
For series [2], the species on record is Mus musculus. Nature of the series: Anti-hypersensitive activity in mouse model of spared nerve injury-induced acute neuropathic pain assessed as increase in paw withdrawal threshold at 20 uM, IT by von Frey test. The format is functional, organism-based.
Series [3] is filed under the species Mus musculus. Nature of the series: Anti-hypersensitive activity in mouse model of spared nerve injury-induced acute neuropathic pain assessed as reduction in GluA1 surface levels in spinal cord at 20 uM, IT by immunoblot analysis. In kind it is functional, organism-based.
The species entered for series [4] is Mus musculus. As to the kind of experiment: Disruption of PICK1-GluA2 interaction in lumbar spinal cord lysates of male C57BL/6 mouse assessed as reduction in GluA2 surface levels at 20 uM, IT and measured by immunoblot analysis. In kind it is subcellular. A general note: A western blot detects proteins with antibodies after separation by electrophoresis.
Series [5] can be described thus: Stability of compound in PBS. In kind it is physicochemical. The note with it: buffer.
Series [6] relates to Rattus norvegicus. Nature of the series: Attenuation of cocaine reinstatement in 7 day cocaine treated rat assessed as effect on inactive lever response at 0.3 to 3 nmol/g, iv of TAMRA labeled compound treated for 45 mins prior to administration of cocaine injection. The format is functional, organism-based. The note with it: dose 0.3-3 nmol/g.
The species entered for series [7] is Mus musculus. As to the kind of experiment: Binding affinity towards PICK1 in lumbar spinal cord lysates of mouse at 20 uM, IT([…]) and measured by immunoblot analysis. The format is subcellular.
The species entered for series [8] is Mus musculus. Nature of the series: Disruption of PICK1-GluA2 interaction in lumbar spinal cord lysates of male C57BL/6 mouse assessed as reduction in GluA1 surface levels at 20 uM, IT and measured by immunoblot analysis. The format is subcellular.
Series [9] relates to Rattus norvegicus. Nature of the series: Attenuation of cocaine reinstatement in 7 day cocaine treated rat assessed as effect on locomotor activity at 3 nmol/g, iv of TAMRA labeled compound treated for 45 mins prior to administration of cocaine injection. In kind it is functional, organism-based.
Series [10] deals with Mus musculus. Nature of the series: Anti-hypersensitive activity in C57BL/6J mouse model of spared nerve injury-induced acute neuropathic pain assessed as increase in ipsilateral paw mechanical threshold at 10 micromol/kg, sc. To be noted: dose 10.0 µmol/kg. In kind it is functional, organism-based.
For series [11], the species on record is Mus musculus. As to the kind of experiment: Disruption of PICK1-GluA2 interaction in lumbar spinal cord lysates of male C57BL/6 mouse assessed as reduction in GluA2 S880 phosphorylation levels at 20 uM, IT and measured by immunoblot analysis. In kind it is subcellular.
A short description of series [12]: Inhibition of recombinant rat SNAP-543-labeled PICK1 binding to Tac-YFP-Dat C24 expressing human HEK293 supported cell membrane sheets and measured by fluorescence polarization competition binding assay. In kind it is cell membranes. In general terms: Fluorescence polarisation rises when a labelled molecule tumbles more slowly, as on binding a larger partner.

Series [13] has as its system Rattus norvegicus. As to the kind of experiment: Attenuation of cocaine reinstatement in 7 day cocaine treated rat assessed as reduction in cocaine seeking behaviour at 0.3 to 3 nmol/g, iv of TAMRA labeled compound treated for 45 mins prior to administration of cocaine injection. The format is functional, organism-based. The note with it: dose 0.3-3 nmol/g.
Series [14] is filed under the species Mus musculus. Nature of the series: Anti-hypersensitive activity in mouse model of spared nerve injury-induced acute neuropathic pain assessed as reduction in GluA2 surface levels in spinal cord at 20 uM, IT by immunoblot analysis. In kind it is functional, organism-based.
For series [15], the species on record is Mus musculus. Nature of the series: Anti-hypersensitive activity in mouse model of spared nerve injury-induced chronic neuropathic pain assessed as increase in paw withdrawal threshold at 20 uM, IT after 28 days by von Frey test. To be noted: time 28.0 day. In kind it is functional, organism-based.
The test system of a further series is Hippocampal neurone. As to the kind of experiment: (§1) Binding affinity towards PICK1 in rat hippocampal neurons incubated for 1 hr and measured by DID staining method. In kind it is cell-based.
Series [16] relates to Rattus norvegicus. As to the kind of experiment: Attenuation of cocaine reinstatement in 7 day cocaine treated rat assessed as reduction in sucrose seeking behaviour at 3 nmol/g, iv of TAMRA labeled compound treated for 45 mins prior to administration of cocaine injection. The format is functional, organism-based.
Series [17] in a line: Stability of compound in human plasma. The format is ADME, cell-free.
A short description of series [18]: Inhibition of macroscopic off-rate of bound PICK1 in Tac-YFP-Dat C24 expressing human HEK293 supported cell membrane sheets. The format is cell membranes.
The species named for series [19] is Mus musculus. Nature of the series: Anti-hypersensitive activity in mouse model of spared nerve injury-induced chronic neuropathic pain assessed as increase in paw withdrawal threshold at 20 uM, IT after 14 days by von Frey test. The format is functional, organism-based. The note with it: time 14.0 day.
For series [20], the species on record is Mus musculus. As to the kind of experiment: Antiallodynic activity in C57BL6/N mouse model of CFA-induced inflammatory pain assessed as increase in paw withdrawal threshold at 20 uM, IT by von Frey test. In kind it is functional, organism-based.
Series [21] can be described thus: as §1. The format is cell-based. To be noted: hippocampal neurone.
Series [22] concerns Mus musculus. As to the kind of experiment: Anti-hypersensitive activity in mouse model of spared nerve injury-induced chronic neuropathic pain assessed as increase in paw withdrawal threshold at 30 mg/kg, ip after 2 hrs by von Frey test. In kind it is functional, organism-based.
A short description of series [23]: Binding affinity towards PICK1 PDZ domain (unknown origin) measured by fluorescence polarization assay. Further details: species or system Homo sapiens.

The source of these data is ChEMBL document CHEMBL5050841, “Inhibitors of pick1 and uses thereof” (2021).

The source made the active and inactive calls.

As for `CC(C)C[C@H](NC(=O)[C@H](Cc1c[nH]c2ccccc12)NC(=O)[C@H](Cc1cnc[nH]1)NC(=O)CCOCCOCCN(CCOCCOCCC(=O)N[C@@H](Cc1cnc[nH]1)C(=O)N[C@@H](Cc1c[nH]c2ccccc12)C(=O)N[C@@H](CC(C)C)C(=O)N[C@@H](CCCCN)C(=O)N[C@H](C(=O)O)C(C)C)C(=O)[C@H](CCCNC(=N)N)NC(=O)[C@H](CCCNC(=N)N)NC(=O)[C@H](CCCNC(=N)N)NC(=O)[C@H](CCCNC(=N)N)NC(=O)[C@H](CCCNC(=N)N)NC(=O)[C@H](CCCNC(=N)N)NC(=O)[C@H](CCCCN)NC(=O)[C@H](CCCCN)NC(=O)[C@H](CCCNC(=N)N)NC(=O)CNC(=O)[C@@H](N)Cc1ccc(O)cc1)C(=O)N[C@@H](CCCCN)C(=O)N[C@H](C(=O)O)C(C)C`, the result in the series filed under Mus musculus [1], in the series filed under Mus musculus [2], in the series filed under Mus musculus [3], in the series listed under Mus musculus [7], with Mus musculus [10] and in the series filed under Mus musculus [11] was Active. Also, the result with Rattus norvegicus [13], in the series filed under Mus musculus [14], in the series listed under Mus musculus [15], with Hippocampal neurone, in the series filed under Mus musculus [19] and in the series listed under Mus musculus [20] was Active. For the same compound, the result in the series listed under Mus musculus [4], with Rattus norvegicus [6], in the series filed under Mus musculus [8], in the series on Rattus norvegicus [9] and in the series with Rattus norvegicus [16] was inactive. The Stability entry in [5] and in series [17] was “Stable” throughout. Also, the IC50 (usually the concentration that inhibits the measured activity by half) in series [12] is 7 nM; in series [18] (read-out: IC50), 1170 nM.

For `CC(C)C[C@H](NC(=O)[C@H](Cc1c[nH]c2ccccc12)NC(=O)[C@H](Cc1cnc[nH]1)NC(=O)[C@H](CCCNC(=N)N)NC(=O)[C@H](CCCNC(=N)N)NC(=O)[C@H](CCCNC(=N)N)NC(=O)[C@H](CCC(N)=O)NC(=O)[C@H](CCCNC(=N)N)NC(=O)[C@H](CCCNC(=N)N)NC(=O)[C@H](CCCCN)NC(=O)[C@H](CCCCN)NC(=O)[C@H](CCCNC(=N)N)NC(=O)CNC(=O)[C@@H](N)Cc1ccc(O)cc1)C(=O)N[C@@H](CCCCN)C(=O)N[C@H](C(=O)O)C(C)C`, the result in the series filed under Mus musculus [1], in the series listed under Mus musculus [2], in the series listed under Mus musculus [3], in the series filed under Mus musculus [4], in the series filed under Mus musculus [7] and in the series listed under Mus musculus [8] was inactive. Further, the result in the series filed under Mus musculus [11] and in the series filed under Mus musculus [14] was inactive. Also, in series [5], the Stability result is listed as “Unstable”. The values for the IC50 result in [21] and in [18] were “Active” and “Not Active”, respectively.

As for `NCC1(CC(=O)O)CCCCC1`, the outcome in the series on Mus musculus [22] was Active.

Take `CC(C)C[C@H](NC(=O)[C@H](Cc1c[nH]c2ccccc12)NC(=O)[C@@H](N)Cc1cnc[nH]1)C(=O)N[C@@H](CCCCN)C(=O)N[C@H](C(=O)O)C(C)C`: the IC50 entry in series [18] is reported as “Not Active”.

Regarding `CC[C@H](C)[C@H](NC(=O)[C@H](CCCCN)NC(=O)CNC(=O)[C@H](CC(C)C)NC(=O)[C@H](CC(C)C)NC(=O)[C@H](Cc1ccc(O)cc1)NC(=O)CNC(=O)[C@H](C)NC(=O)[C@H](CO)NC(=O)[C@H](CC(N)=O)NC(=O)[C@H](CC(C)C)NC(=O)[C@@H](NC(=O)[C@H](Cc1c[nH]c2ccccc12)NC(=O)CN)[C@@H](C)O)C(=O)N[C@@H](CC(N)=O)C(=O)N[C@@H](CC(C)C)C(=O)N[C@@H](CCCCN)C(=O)N[C@@H](C)C(=O)N[C@@H](CC(C)C)C(=O)N[C@@H](C)C(=O)N[C@@H](C)C(=O)N[C@@H](CC(C)C)C(=O)N[C@@H](C)C(=O)N[C@@H](CCCCN)C(=O)N[C@@H](CCCCN)C(=O)N[C@H](C(=O)N[C@@H](CC(C)C)C(=O)N(CCOCCOCCC(=O)N[C@@H](Cc1cnc[nH]1)C(=O)N[C@@H](Cc1c[nH]c2ccccc12)C(=O)N[C@@H](CC(C)C)C(=O)N[C@@H](CCCCN)C(=O)N[C@H](C(=O)O)C(C)C)CCOCCOCCC(=O)N[C@@H](Cc1cnc[nH]1)C(=O)N[C@@H](Cc1c[nH]c2ccccc12)C(=O)N[C@@H](CC(C)C)C(=O)N[C@@H](CCCCN)C(=O)N[C@H](C(=O)O)C(C)C)[C@@H](C)CC`, the result in the series with Mus musculus [10] was Active. In addition, the affinity in series [23], expressed as Ki, was 7.8 nM.
